Laboratory results: ChEMBL document CHEMBL1201862, “PubChem BioAssay data set” (2004)
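Test compounds were applied to cells in 96-well plates for 48 hours at 5 doses. GI50: concentration for 50% inhibition of growth.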 Calls of active or inactive are those of the source. Rule as the data show it: active = GI50 up to about 1.1 µM and inactive = higher.

Experiments:
Test in all cases: inhibition of tumour cell growth, NCI panel, 48 h
[1] = system: SF-268
[2] = system: HT-29
[3] = system: KM12
[4] = system: RPMI-8226
[5] = system: OVCAR-4
[6] = system: HOP-92
[7] = system: LOX IMVI
[8] = system: SK-MEL-2
[9] = system: UO-31
[10] = system: SW-620
[11] = system: NCI/ADR-RES
[12] = system: U-251
[13] = system: NCI-H23
[14] = system: UACC-62
[15] = system: NCI-H460
[16] = system: PC-3
[17] = system: Hs-578T
[18] = system: 786-0
[19] = system: OVCAR-8
[20] = system: A498
[21] = system: MOLT-4
[22] = system: HCC 2998
[23] = system: MDA-MB-435
[24] = system: Malme-3M
[25] = system: CCRF-CEM
[26] = system: MDA-MB-231
[27] = system: T47D
[28] = system: SF-295
[29] = system: SNB-19
[30] = system: NCI-H226
[31] = system: OVCAR-3
[32] = system: RXF 393
[33] = system: SNB-75
[34] = system: UACC-257
[35] = system: NCI-H522
[36] = system: SK-MEL-28
[37] = system: COLO 205
[38] = system: MDA-N
[39] = system: CAKI-1
[40] = system: A549
[41] = system: SR
[42] = system: SK-MEL-5
[43] = system: TK-10
[44] = system: OVCAR-5
[45] = system: HCT-116
[46] = system: M14
[47] = system: K562
[48] = system: SN12C
[49] = system: ACHN
[50] = system: HOP-62
[51] = system: IGROV-1
[52] = system: HCT-15
[53] = system: BT-549
[54] = system: DU-145
[55] = system: SK-OV-3

CCOC(=O)C(=[N+]=[N-])C(=O)C[N+]12CCN(CC1)CC2
GI50 [1]: > 100 µM (inactive) | GI50 [2]: > 100 µM (inactive) | GI50 [3]: > 100 µM (inactive) | GI50 [4]: > 100 µM (inactive) | GI50 [5]: > 100 µM (inactive) | GI50 [6]: > 100 µM (inactive) | GI50 [7]: > 100 µM (inactive) | GI50 [8]: > 100 µM (inactive) | GI50 [9]: > 100 µM (inactive) | GI50 [10]: > 100 µM (inactive) | GI50 [11]: > 100 µM (inactive) | GI50 [12]: > 100 µM (inactive) | GI50 [13]: > 100 µM (inactive) | GI50 [14]: > 100 µM (inactive) | GI50 [15]: > 100 µM (inactive) | GI50 [16]: > 100 µM (inactive) | GI50 [17]: > 100 µM (inactive) | GI50 [18]: > 100 µM (inactive) | GI50 [19]: > 100 µM (inactive) | GI50 [20]: > 100 µM (inactive) | GI50 [21]: > 100 µM (inactive) | GI50 [22]: > 100 µM (inactive) | GI50 [23]: > 100 µM (inactive) | GI50 [24]: > 100 µM (inactive) | GI50 [25]: > 100 µM (inactive) | GI50 [26]: > 100 µM (inactive) | GI50 [27]: > 100 µM (inactive) | GI50 [28]: > 100 µM (inactive) | GI50 [29]: > 100 µM (inactive) | GI50 [30]: > 100 µM (inactive) | GI50 [31]: > 100 µM (inactive) | GI50 [32]: > 100 µM (inactive) | GI50 [33]: > 100 µM (inactive) | GI50 [34]: > 100 µM (inactive) | GI50 [35]: > 100 µM (inactive) | GI50 [36]: > 100 µM (inactive) | GI50 [37]: > 100 µM (inactive) | GI50 [38]: > 100 µM (inactive) | GI50 [39]: > 100 µM (inactive) | GI50 [40]: > 100 µM (inactive) | GI50 [41]: > 100 µM (inactive) | GI50 [42]: > 100 µM (inactive) | GI50 [43]: > 100 µM (inactive) | GI50 [44]: > 100 µM (inactive) | GI50 [45]: > 100 µM (inactive) | GI50 [46]: > 100 µM (inactive) | GI50 [47]: > 100 µM (inactive) | GI50 [48]: > 100 µM (inactive) | GI50 [49]: > 100 µM (inactive) | GI50 [50]: > 100 µM (inactive) | GI50 [51]: > 100 µM (inactive) | GI50 [52]: > 100 µM | GI50 [53]: > 100 µM (inactive) | GI50 [54]: > 100 µM (inactive) | GI50 [55]: > 100 µM (inactive)
